Source: ChEMBL document CHEMBL4130502, “Discovery of thienopyrrolotriazine derivatives to protect mitochondrial function against Aβ-induced neurotoxicity” (Eur J Med Chem, 2017)

Tests used:
[1] = biological target: Translocator protein (Mus musculus) (UniProt P50637); assay: Inhibition of TSPO in mouse HT22 cells assessed as reduction in amyloid beta (1 to 42) (unknown origin) induced mitochondrial permeability transition pore formation by measuring increase in green to red fluorescence ratio at 5 uM pretreated for 10 mins followed by amyloid beta (1 to 42) stimulation and measured at 1 hr interval for 3 hrs by JC-1 dye based fluorescence assay relative to control; assay type: cell-based; set-up: scale not given: the % may be the effect or the level left
[2] = biological target: Translocator protein (Mus musculus) (UniProt P50637); assay: Inhibition of TSPO in mouse HT22 cells assessed as recovery of ATP production at 5 uM preincubated for 10 mins followed by amyloid beta (1 to 42) stimulation and measured after 7 hrs by luciferase based assay relative to control; assay type: cell-based; set-up: scale not given: the % may be the effect or the level left
[3] = Cytotoxicity against mouse HT22 cells as cell viability at 5 uM after 24 hrs by MTT assay relative to control; assay type: cell-based, HT-22; details: read-out: Activity
[4] = biological target: T1, CYP1A2 (Homo sapiens, UniProt P05177); assay: Inhibition of human CYP1A2 assessed as remaining enzyme activity at 10 uM preincubated for 5 mins followed by Vivid CYP substrate addition measured after 20 mins by fluorescence assay relative to control; assay type: ADME; details: probe Vivid CYP substrate, read-out: Activity
T1 sequence (P05177 whole entry): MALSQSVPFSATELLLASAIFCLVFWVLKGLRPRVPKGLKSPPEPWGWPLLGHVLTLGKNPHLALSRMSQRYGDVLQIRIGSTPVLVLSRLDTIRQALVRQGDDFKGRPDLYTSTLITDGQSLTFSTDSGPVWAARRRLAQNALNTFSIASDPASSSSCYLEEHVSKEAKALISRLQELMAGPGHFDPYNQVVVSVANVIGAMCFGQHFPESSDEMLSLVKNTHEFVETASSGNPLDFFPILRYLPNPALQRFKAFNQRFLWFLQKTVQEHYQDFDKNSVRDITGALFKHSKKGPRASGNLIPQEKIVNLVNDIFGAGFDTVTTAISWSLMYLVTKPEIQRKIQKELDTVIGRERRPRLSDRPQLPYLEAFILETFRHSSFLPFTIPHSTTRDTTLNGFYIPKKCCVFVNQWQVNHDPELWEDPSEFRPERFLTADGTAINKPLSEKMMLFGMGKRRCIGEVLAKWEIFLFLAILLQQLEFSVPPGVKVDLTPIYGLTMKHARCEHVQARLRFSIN

[5] = biological target: Translocator protein (Rattus norvegicus, UniProt P16257); assay: Displacement of [3H]PK11195 from TSPO in Sprague-Dawley rat cerebral cortex membranes after 60 mins by liquid scintillation counting analysis; set-up: species or system Membrane
[6] = biological target: CYP2D6 (Homo sapiens, UniProt P10635); assay: Inhibition of human CYP2D6 assessed as remaining enzyme activity at 10 uM preincubated for 5 mins followed by Vivid CYP substrate addition measured after 20 mins by fluorescence assay relative to control; assay type: ADME; details: probe Vivid CYP substrate, read-out: Activity
[7] = biological target: CYP2C9 (Homo sapiens, UniProt P11712); assay: Inhibition of human CYP2C9 assessed as remaining enzyme activity at 10 uM preincubated for 5 mins followed by Vivid CYP substrate addition measured after 20 mins by fluorescence assay relative to control; assay type: ADME; details: probe Vivid CYP substrate, read-out: Activity
[8] = biological target: CYP3A4 (Homo sapiens, UniProt P08684); assay: Inhibition of human CYP3A4 assessed as remaining enzyme activity at 10 uM preincubated for 5 mins followed by Vivid CYP substrate addition measured after 20 mins by fluorescence assay relative to control; assay type: ADME; details: probe Vivid CYP substrate, read-out: Activity
[9] = biological target: CYP2C19 (Homo sapiens, UniProt P33261); assay: Inhibition of human CYP2C19 assessed as remaining enzyme activity at 10 uM preincubated for 5 mins followed by Vivid CYP substrate addition measured after 20 mins by fluorescence assay relative to control; assay type: ADME; details: probe Vivid CYP substrate, read-out: Activity
[10] = biological target: Translocator protein (Homo sapiens, UniProt P30536); assay: Binding affinity to C-terminal DDK-tagged human recombinant full-length TSPO expressed in HEK293 cells by SPR assay
[11] = Stability in human liver microsomes assessed as parent compound remaining at 1 uM preincubated for 5 mins followed by NADPH addition measured after 30 mins by LC-MS/MS analysis; assay type: ADME, microsome; details: read-out: Stability
[12] = Stability in dog liver microsomes assessed as parent compound remaining at 1 uM preincubated for 5 mins followed by NADPH addition measured after 30 mins by LC-MS/MS analysis; assay type: ADME, Canis lupus familiaris, microsome; details: read-out: Stability
[13] = Stability in rat liver microsomes assessed as parent compound remaining at 1 uM preincubated for 5 mins followed by NADPH addition measured after 30 mins by LC-MS/MS analysis; assay type: ADME, microsome; details: read-out: Stability
[14] = Stability in mouse liver microsomes assessed as parent compound remaining at 1 uM preincubated for 5 mins followed by NADPH addition measured after 30 mins by LC-MS/MS analysis; assay type: ADME, microsome; details: read-out: Stability
[15] = Stability in human plasma assessed as parent compound remaining at 10 uM after 30 mins by LC-MS/MS analysis; assay type: ADME, cell-free; details: read-out: Stability
[16] = Stability in human plasma assessed as parent compound remaining at 10 uM after 120 mins by LC-MS/MS analysis; assay type: ADME, cell-free; details: read-out: Stability
[17] = Stability in rat plasma assessed as parent compound remaining at 10 uM after 30 mins by LC-MS/MS analysis; assay type: ADME, cell-free; details: read-out: Stability
[18] = Stability in rat plasma assessed as parent compound remaining at 10 uM after 120 mins by LC-MS/MS analysis; assay type: ADME, cell-free; details: read-out: Stability

Sequence of CYP2D6 (P10635 whole entry): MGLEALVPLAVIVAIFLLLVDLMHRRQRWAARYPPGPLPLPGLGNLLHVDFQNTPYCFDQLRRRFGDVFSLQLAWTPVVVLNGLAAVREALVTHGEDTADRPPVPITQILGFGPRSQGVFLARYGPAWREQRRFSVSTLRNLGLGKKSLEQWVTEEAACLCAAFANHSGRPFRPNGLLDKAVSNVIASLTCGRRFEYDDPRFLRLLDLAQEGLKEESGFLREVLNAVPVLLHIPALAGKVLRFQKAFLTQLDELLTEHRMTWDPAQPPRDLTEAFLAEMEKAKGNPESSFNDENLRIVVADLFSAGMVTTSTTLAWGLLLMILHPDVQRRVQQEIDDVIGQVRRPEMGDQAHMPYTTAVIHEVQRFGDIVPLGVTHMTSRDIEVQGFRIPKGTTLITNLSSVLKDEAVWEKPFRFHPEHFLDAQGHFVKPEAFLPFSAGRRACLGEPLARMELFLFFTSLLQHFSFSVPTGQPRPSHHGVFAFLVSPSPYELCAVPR
Sequence of Translocator protein (Rattus norvegicus, UniProt P16257) (P16257 whole entry, looked up): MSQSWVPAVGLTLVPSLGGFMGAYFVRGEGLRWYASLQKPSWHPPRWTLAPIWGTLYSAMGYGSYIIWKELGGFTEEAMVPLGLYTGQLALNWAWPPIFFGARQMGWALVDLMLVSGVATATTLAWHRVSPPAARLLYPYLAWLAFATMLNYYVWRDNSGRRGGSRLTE
Sequence of Translocator protein (Mus musculus) (P50637 whole entry, looked up): as the sequence (P16257 whole entry, looked up) above, with S2P, Q3E, I67V, E77D, V110A, M113L, M149V, T168P counted along it
Sequence of CYP3A4 (P08684 whole entry): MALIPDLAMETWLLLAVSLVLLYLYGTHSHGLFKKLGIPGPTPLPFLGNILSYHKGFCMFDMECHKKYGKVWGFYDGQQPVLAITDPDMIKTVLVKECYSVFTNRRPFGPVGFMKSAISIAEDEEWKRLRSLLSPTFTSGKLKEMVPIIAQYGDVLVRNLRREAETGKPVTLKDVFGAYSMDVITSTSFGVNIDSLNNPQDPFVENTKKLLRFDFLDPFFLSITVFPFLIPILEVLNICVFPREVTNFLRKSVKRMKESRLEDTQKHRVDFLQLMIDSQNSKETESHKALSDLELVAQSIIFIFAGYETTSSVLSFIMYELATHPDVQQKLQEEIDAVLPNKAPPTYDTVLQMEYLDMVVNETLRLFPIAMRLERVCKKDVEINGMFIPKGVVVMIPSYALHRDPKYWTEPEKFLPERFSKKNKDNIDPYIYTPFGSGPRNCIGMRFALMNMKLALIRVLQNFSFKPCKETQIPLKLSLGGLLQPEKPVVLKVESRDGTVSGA
Sequence of CYP2C9 (P11712 whole entry): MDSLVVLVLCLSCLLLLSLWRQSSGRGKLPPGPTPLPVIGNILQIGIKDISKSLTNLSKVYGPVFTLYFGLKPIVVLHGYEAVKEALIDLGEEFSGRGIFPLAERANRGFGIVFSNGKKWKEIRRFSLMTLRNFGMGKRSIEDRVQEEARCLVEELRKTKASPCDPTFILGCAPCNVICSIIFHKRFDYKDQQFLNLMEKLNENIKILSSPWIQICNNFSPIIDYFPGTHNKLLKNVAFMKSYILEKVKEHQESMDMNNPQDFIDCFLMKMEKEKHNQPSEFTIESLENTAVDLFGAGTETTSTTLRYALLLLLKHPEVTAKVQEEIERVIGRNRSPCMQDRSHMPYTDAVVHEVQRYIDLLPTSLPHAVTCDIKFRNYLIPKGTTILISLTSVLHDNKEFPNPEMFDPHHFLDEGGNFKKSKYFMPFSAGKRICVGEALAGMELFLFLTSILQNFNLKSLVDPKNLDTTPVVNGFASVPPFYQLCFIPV
Sequence of CYP2C19 (P33261 whole entry): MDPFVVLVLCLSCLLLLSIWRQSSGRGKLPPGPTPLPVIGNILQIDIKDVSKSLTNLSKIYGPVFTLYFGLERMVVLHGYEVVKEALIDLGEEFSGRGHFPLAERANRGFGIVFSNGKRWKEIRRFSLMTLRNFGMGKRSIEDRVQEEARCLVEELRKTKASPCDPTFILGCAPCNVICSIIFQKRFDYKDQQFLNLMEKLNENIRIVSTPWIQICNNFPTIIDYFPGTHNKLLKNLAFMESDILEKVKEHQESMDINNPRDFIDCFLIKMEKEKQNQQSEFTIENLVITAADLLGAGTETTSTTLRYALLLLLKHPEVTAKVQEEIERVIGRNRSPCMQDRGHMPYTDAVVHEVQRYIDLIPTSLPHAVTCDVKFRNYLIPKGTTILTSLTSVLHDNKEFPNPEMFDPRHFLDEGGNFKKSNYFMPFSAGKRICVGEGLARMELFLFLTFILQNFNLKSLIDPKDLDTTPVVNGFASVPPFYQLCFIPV
Sequence of Translocator protein (Homo sapiens, UniProt P30536) (P30536 whole entry): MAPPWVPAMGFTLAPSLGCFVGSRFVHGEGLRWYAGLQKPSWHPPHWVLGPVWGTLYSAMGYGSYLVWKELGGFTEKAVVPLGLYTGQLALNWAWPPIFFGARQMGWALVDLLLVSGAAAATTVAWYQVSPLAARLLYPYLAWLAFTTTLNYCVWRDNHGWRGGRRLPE

| SMILES | Activity [1] [%] | Activity [2] [%] | viability at 24 h, 5 µM [3] [%] | activity at 20 min, 10 µM [4] [%] | IC50 [5] [nM] | activity at 20 min, 10 µM [6] [%] | activity at 20 min, 10 µM [7] [%] | activity at 20 min, 10 µM [8] [%] | activity at 20 min, 10 µM [9] [%] | Kd [10] [nM] | remaining at 0.5 h, 1 µM [11] [%] | remaining at 0.5 h, 1 µM [12] [%] | remaining at 0.5 h, 1 µM [13] [%] | remaining at 0.5 h, 1 µM [14] [%] | remaining at 0.5 h, 10 µM [15] [%] | remaining at 2 h, 10 µM [16] [%] | remaining at 0.5 h, 10 µM [17] [%] | remaining at 2 h, 10 µM [18] [%] |
| --- | --- | --- | --- | --- | --- | --- | --- | --- | --- | --- | --- | --- | --- | --- | --- | --- | --- | --- |
| Cc1nnc(SCC(=O)N(C)c2ccccc2)c2cc3sccc3n12 | 56 | 25 | 99 | 46.8 | 55.1 | 48.8 | 124 | 41.3 | 28.8 | – | – | – | – | – | – | – | – | – |
| CCc1nnc(SCC(=O)N(C)c2ccccc2)c2cc3sc(C)cc3n12 | 61 | 44 | 91 | 50.7 | 39.9 | 60.4 | 64.8 | 64.1 | 52.2 | 61.2 | 8.8 | 9.8 | 9 | 12.8 | 99.3 | 93.6 | 96.6 | 80.6 |
| CCc1nnc(SCC(=O)Nc2ccc(OC)c(OC)c2)c2cc3sc(C)cc3n12 | 62 | 18 | 91 | 65.5 | > 10000 | 54.2 | 50 | 44.7 | 30.9 | – | – | – | – | – | – | – | – | – |
| CCc1nnc(SCC(=O)N(C)c2ccccc2)c2cc3sccc3n12 | 46 | 8 | 97 | 33.7 | 24.8 | 49.5 | 70.5 | 32.2 | 16.8 | 39.6 | 5 | 5.1 | 6.4 | 8.2 | > 100 | 96.8 | 94 | 72.4 |
